PMC5108454 (Cell metabolism, 2016)

What was measured:
[1] = molecular target: T1, Sdh (succinate dehydrogenase; complex II) (Mus musculus, UniProt Q8K2B3); test: complex II enzyme activity microplate assay, Dixon plot; type: biochemical
[2] = molecular target: T1, Sdh (succinate dehydrogenase; complex II); test: complex II enzyme activity microplate assay, Lineweaver-Burk plot; type: biochemical; details: sodium succinate hexahydrate varied in activity buffer with phospholipid mixture

T1 sequence (Q8K2B3 43-664): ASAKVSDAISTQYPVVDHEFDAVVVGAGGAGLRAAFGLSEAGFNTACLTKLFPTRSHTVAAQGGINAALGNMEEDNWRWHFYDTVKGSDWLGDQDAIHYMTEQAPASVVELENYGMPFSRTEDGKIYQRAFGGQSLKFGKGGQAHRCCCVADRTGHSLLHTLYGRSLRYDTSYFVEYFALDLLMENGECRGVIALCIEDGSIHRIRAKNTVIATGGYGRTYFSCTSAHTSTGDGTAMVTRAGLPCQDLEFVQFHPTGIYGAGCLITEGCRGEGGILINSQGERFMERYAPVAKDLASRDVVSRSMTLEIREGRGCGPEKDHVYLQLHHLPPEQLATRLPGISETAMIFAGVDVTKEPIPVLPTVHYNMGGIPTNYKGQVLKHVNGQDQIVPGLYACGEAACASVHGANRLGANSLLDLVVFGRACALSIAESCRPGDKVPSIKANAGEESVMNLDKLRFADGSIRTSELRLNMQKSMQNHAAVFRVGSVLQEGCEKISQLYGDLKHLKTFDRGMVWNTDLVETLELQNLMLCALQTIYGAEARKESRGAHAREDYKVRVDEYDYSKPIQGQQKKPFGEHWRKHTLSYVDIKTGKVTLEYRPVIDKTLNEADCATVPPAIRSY
T1 sequence (Q9CQA3 31-282 partner): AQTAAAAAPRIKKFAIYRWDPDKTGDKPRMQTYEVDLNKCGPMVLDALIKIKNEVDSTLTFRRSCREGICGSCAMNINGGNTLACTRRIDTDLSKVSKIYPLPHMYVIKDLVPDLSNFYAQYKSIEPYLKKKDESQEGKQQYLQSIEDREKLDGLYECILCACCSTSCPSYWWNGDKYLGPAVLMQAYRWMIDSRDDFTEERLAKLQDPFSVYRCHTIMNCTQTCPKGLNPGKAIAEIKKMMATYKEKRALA
T1 sequence (Q9CZB0 30-169 partner): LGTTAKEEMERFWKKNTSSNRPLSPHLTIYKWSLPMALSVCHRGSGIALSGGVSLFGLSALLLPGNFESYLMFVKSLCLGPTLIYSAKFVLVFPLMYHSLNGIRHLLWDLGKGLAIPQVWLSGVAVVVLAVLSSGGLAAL
T1 sequence (Q9CXV1 57-159 partner): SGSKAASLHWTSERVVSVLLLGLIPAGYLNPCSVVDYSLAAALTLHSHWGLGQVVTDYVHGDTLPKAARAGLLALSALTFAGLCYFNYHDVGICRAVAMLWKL

Ki [1] [µM] | Km [2] [µM] | Compound
220 |  | C=C(CC(=O)O)C(=O)O [itaconate]
 | 290 ± 800 | O=C(O)CCC(=O)O [succinate]
